In assay [1] the target is Delta-type opioid receptor (Rattus norvegicus, UniProt P33533). Briefly: Binding affinity evaluated by inhibition of binding of [3H]DADLE to delta opioid receptor of rat brain.
In assay [2] the target is Opioid receptors; mu & delta (Rattus norvegicus) (UniProt P33533+P33535). Briefly: Selectivity ratio against mu opioid receptor to that of delta opioid receptor. It is filed as protein assay.

These results are taken from ChEMBL document CHEMBL1132134, “The LMC delta opioid recognition pharmacophore: comparison of SNC80 and oxymorphindole” (Bioorg Med Chem Lett, 1999).

Sequence of Opioid receptors; mu & delta (Rattus norvegicus) (P33533 whole entry, looked up): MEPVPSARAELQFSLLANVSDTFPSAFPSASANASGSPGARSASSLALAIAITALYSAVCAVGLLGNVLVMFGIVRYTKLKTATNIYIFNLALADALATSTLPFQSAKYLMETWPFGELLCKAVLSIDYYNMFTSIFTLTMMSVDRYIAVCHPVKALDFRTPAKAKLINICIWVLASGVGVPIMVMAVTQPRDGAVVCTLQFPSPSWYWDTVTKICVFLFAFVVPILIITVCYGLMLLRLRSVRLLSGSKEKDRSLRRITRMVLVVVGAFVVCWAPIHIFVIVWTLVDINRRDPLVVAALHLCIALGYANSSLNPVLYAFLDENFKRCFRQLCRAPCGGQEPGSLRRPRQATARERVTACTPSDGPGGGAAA
Sequence of Opioid receptors; mu & delta (Rattus norvegicus) (P33535 whole entry, looked up): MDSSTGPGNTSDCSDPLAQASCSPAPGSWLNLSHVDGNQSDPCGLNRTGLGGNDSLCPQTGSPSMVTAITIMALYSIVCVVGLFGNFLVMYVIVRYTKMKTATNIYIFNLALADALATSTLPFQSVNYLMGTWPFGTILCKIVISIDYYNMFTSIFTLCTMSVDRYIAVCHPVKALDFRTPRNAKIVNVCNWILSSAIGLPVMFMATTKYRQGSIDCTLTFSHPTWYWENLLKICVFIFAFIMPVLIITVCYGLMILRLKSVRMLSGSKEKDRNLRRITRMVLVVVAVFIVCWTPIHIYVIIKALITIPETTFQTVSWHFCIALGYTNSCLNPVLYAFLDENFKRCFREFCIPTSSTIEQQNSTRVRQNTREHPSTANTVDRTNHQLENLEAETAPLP
Sequence of Delta-type opioid receptor (P33533 whole entry): as the sequence (P33533 whole entry, looked up) above

What is called Ki is a dissociation constant, usually derived from enzyme kinetics or from competition with a known ligand. A high value points to lower affinity. In assay [1], `O=C1/C(=C/c2ccc3ccccc3c2)C[C@@]2(O)C3Cc4ccc(O)c5c4C2(CCN3CC2CC2)C1O5` (stereo not given in full) came in with a Ki of 0.039 µM. Further, the Selectivity in assay [2] amounted to 0.6.

For the compound `O=C1/C(=C/c2ccc(-c3ccccc3)cc2)C[C@@]2(O)C3Cc4ccc(O)c5c4C2(CCN3CC2CC2)C1O5` (stereo not given in full), the affinity in assay [1] corresponds to a Ki of 0.075 µM. Besides, the Selectivity in assay [2] was determined as 0.6.

With `O=C1/C(=C/c2cccc3ccccc23)C[C@@]2(O)C3Cc4ccc(O)c5c4C2(CCN3CC2CC2)C1O5` (stereo not given in full), in assay [1], affinity was put at a Ki of 0.0046 µM. In assay [2], the Selectivity was found to be 7.5.

With `O=C1/C(=C\c2ccc(-c3ccccc3)cc2)C[C@@]2(O)C3Cc4ccc(O)c5c4C2(CCN3CC2CC2)C1O5` (stereo not given in full), in assay [1], the affinity, expressed as Ki, was 0.047 µM. The Selectivity in assay [2] stood at 4.2.

On to `O=C1/C(=C\c2c3ccccc3cc3ccccc23)C[C@@]2(O)C3Cc4ccc(O)c5c4C2(CCN3CC2CC2)C1O5` (stereo not given in full), for which the Ki in assay [1] was found to be 0.0024 µM. Moreover, in assay [2], the Selectivity stood at 14.

`O=C1/C(=C\c2cccc3ccccc23)C[C@@]2(O)C3Cc4ccc(O)c5c4C2(CCN3CC2CC2)C1O5` (stereo not given in full) displayed a Ki in assay [1] of 0.0007 µM. Moreover, the Selectivity in assay [2] was 15.

In assay [1], `O=C1/C(=C/c2ccccc2)C[C@@]2(O)[C@H]3Cc4ccc(O)c5c4[C@@]2(CCN3CC2CC2)[C@H]1O5` [BNTX] yielded a Ki of 0.0062 µM. In addition, the Selectivity in assay [2] amounted to 4.

In turn, `O=C1/C(=C\c2ccc3ccccc3c2)C[C@@]2(O)C3Cc4ccc(O)c5c4C2(CCN3CC2CC2)C1O5` (stereo not given in full) came in with a Ki in assay [1] of 0.016 µM. Further, the Selectivity in assay [2] was 3.

In turn, `O=C1/C(=C\c2ccccc2)C[C@@]2(O)[C@H]3Cc4ccc(O)c5c4[C@@]2(CCN3CC2CC2)[C@H]1O5` registered a Ki in assay [1] of 0.0037 µM. In assay [2], the Selectivity amounted to 8.6.

With `O=C1/C(=C/c2c3ccccc3cc3ccccc23)C[C@@]2(O)C3Cc4ccc(O)c5c4C2(CCN3CC2CC2)C1O5` (stereo not given in full), the Ki in assay [1] came out at 0.017 µM. Further, the Selectivity in assay [2] was 6.4.
